Assays:
Assay in all cases: MIC, CLSI broth microdilution, Gram-negative clinical isolates
[1] = test system: PAE.2281; format: cell-based, Pseudomonas aeruginosa
Protocol: (§1) Plates were incubated at 35° C. for 24 h.
(§2) The activity of paenibacterin was also tested against clinical isolates of the following Gram-negative bacterial strains: four strains of the species Pseudomonas aeruginosa (PAE), three strains of the species Acinetobacter baumannii (ABA), two strains of the species Escherichia coli (ECO), and four strains of the species Klebsiella pneumoniae (KPN). Particularly, the strains of Gram-negative bacteria included polymyxin B-resistant (PMB-R) and polymyxin B-sensitive (PMB-S) strains of each above listed species. The MICs were determined using the above described CLSI broth microdilution method, in which the method was performed with both non-binding surface coated (NBS) and polystyrene (PS) 96-well plates (Tables 11 and 12, respectively). The MICs were generally lower in the NBS 96-well plates as compared to the PS 96-well plates.

[2] = test system: PAE.44; format: cell-based, Pseudomonas aeruginosa
Protocol: as §1, §2

[3] = test system: PAE.2325; format: cell-based, Pseudomonas aeruginosa
Protocol: as §1, §2

[4] = test system: PAE.999; format: cell-based, Pseudomonas aeruginosa
Protocol: as §1, §2

[5] = test system: KPN.2317; format: cell-based, Klebsiella pneumoniae
Protocol: as §1, §2

[6] = test system: PMB-S, KPN.2461; format: cell-based, Klebsiella pneumoniae
Protocol: as §1, §2

[7] = test system: KPN.674; format: cell-based, Klebsiella pneumoniae
Protocol: as §1, §2

[8] = test system: PMB-R, KPN.2463; format: cell-based, Klebsiella pneumoniae
Protocol: as §1, §2

[9] = test system: ABA.2315; format: cell-based, Acinetobacter baumannii
Protocol: as §1, §2

[10] = test system: ABA.2232; format: cell-based, Acinetobacter baumannii
Protocol: as §1, §2

[11] = test system: ABA.1570; format: cell-based, Acinetobacter baumannii
Protocol: as §1, §2

[12] = test system: ECO.2276; format: cell-based, Escherichia coli
Protocol: as §1, §2

[13] = test system: ATCC 25922 ECO.35; format: cell-based, Escherichia coli
Protocol: as §1, §2

Substance: polymyxin B sulfate
- Minimum inhibitory concentration (MIC) ([1]; NBS 96-well plates): 16 µg/mL
- Minimum inhibitory concentration (MIC) ([1]; PS 96-well plates): 16 µg/mL
- Minimum inhibitory concentration (MIC) ([2]; non-binding surface coated (NBS) 96-well plates): 0.125 µg/mL
- Minimum inhibitory concentration (MIC) ([2]; polystyrene (PS) 96-well plates): 2 µg/mL
- Minimum inhibitory concentration (MIC) ([3]; NBS 96-well plates): 0.25 µg/mL
- Minimum inhibitory concentration (MIC) ([3]; PS 96-well plates): 2 µg/mL
- Minimum inhibitory concentration (MIC) ([4]; NBS 96-well plates): 0.25 µg/mL
- Minimum inhibitory concentration (MIC) ([4]; PS 96-well plates): 2 µg/mL
- Minimum inhibitory concentration (MIC) ([5]; NBS 96-well plates): >64 µg/mL
- Minimum inhibitory concentration (MIC) ([5]; PS 96-well plates): >64 µg/mL
- Minimum inhibitory concentration (MIC) ([6]; KPN.2461 (PMB-S), NBS 96-well plates): 0.06 to 0.13 µg/mL
- Minimum inhibitory concentration (MIC) ([6]; KPN.2461, PS 96-well plates): 2 µg/mL
- Minimum inhibitory concentration (MIC) ([7]; NBS 96-well plates): 0.125 µg/mL
- Minimum inhibitory concentration (MIC) ([7]; PS 96-well plates): 2 µg/mL
- Minimum inhibitory concentration (MIC) ([8]; KPN.2463 (PMB-R), NBS 96-well plates): 2 to 8 µg/mL
- Minimum inhibitory concentration (MIC) ([8]; KPN.2463, PS 96-well plates): 32 µg/mL
- Minimum inhibitory concentration (MIC) ([9]; NBS 96-well plates): 8 µg/mL
- Minimum inhibitory concentration (MIC) ([9]; PS 96-well plates): 64 µg/mL
- Minimum inhibitory concentration (MIC) ([10]; NBS 96-well plates): 0.06 µg/mL
- Minimum inhibitory concentration (MIC) ([10]; PS 96-well plates): 2 µg/mL
- Minimum inhibitory concentration (MIC) ([11]; NBS 96-well plates): 0.0625 µg/mL
- Minimum inhibitory concentration (MIC) ([11]; NBS 96-well plates, listed as polymyxin B): 0.06 µg/mL
- Minimum inhibitory concentration (MIC) ([11]; PS 96-well plates): 2 µg/mL
- Minimum inhibitory concentration (MIC) ([12]; NBS 96-well plates): 8 µg/mL
- Minimum inhibitory concentration (MIC) ([12]; PS 96-well plates): 8 µg/mL
- Minimum inhibitory concentration (MIC) ([13]; ECO.35 (ATCC 25922), NBS 96-well plates): 0.06 µg/mL
- Minimum inhibitory concentration (MIC) ([13]; ECO.35, PS 96-well plates): 2 µg/mL

From patent publication US9017692B2, “Antimicrobial agent, bacterial strain, biosynthesis, and methods of use” (priority 2011, dated 2015)
